Values joined by “and” are separate entries in the source; they are usually repeats but may differ in a detail not shown here. Identical values can stand only once. Toxic doses and inconclusive results are not listed. No stated cut-off is given here; in the data, active means T/C of 150% or more; inactive means T/C below 125%.
Tested on: L1210 leukemia ip in BDF1 mice, survival T/C
Assay: NCI In Vivo Anticancer Drug Screen. Data for tumor model L1210 Leukemia (intraperitoneal) in B6D2F1 (BDF1) mice
Conditions: endpoint: mean survival time, higher = longer survival
Summary of the method: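 Antitumor effect is assessed in tumor-bearing animals. Survival in the compound arm is compared with a vehicle-dosed control arm and expressed as their quotient.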

[1] = dose: 100.0 mg/kg/injection, schedule: Q01DX001 (ip), vehicle: other
[2] = dose: 200.0 mg/kg/injection, schedule: Q01DX001 (ip), vehicle: other
[3] = dose: 100.0 mg/kg/injection, schedule: Q01DX009 (ip), vehicle: saline with Tween-80
[4] = dose: 200.0 mg/kg/injection, schedule: Q01DX009 (ip), vehicle: saline with Tween-80
[5] = dose: 400.0 mg/kg/injection, schedule: Q01DX009 (ip), vehicle: saline with Tween-80
[6] = dose: 100.0 mg/kg/injection, schedule: Q01DX001 (ip), vehicle: carboxymethylcellulose (CMC)
[7] = dose: 100.0 mg/kg/injection, schedule: Q04DX003 (ip), vehicle: saline with Tween-80
[8] = dose: 200.0 mg/kg/injection, schedule: Q01DX001 (ip), vehicle: carboxymethylcellulose (CMC)
[9] = dose: 200.0 mg/kg/injection, schedule: Q04DX003 (ip), vehicle: saline with Tween-80
[10] = dose: 400.0 mg/kg/injection, schedule: Q01DX001 (ip), vehicle: carboxymethylcellulose (CMC)
[11] = dose: 400.0 mg/kg/injection, schedule: Q04DX003 (ip), vehicle: saline with Tween-80
[12] = dose: 100.0 mg/kg/injection, schedule: Q04DX003 (ip), vehicle: Klucel (hydroxypropylcellulose) (HPC)
[13] = dose: 200.0 mg/kg/injection, schedule: Q04DX003 (ip), vehicle: Klucel (hydroxypropylcellulose) (HPC)
[14] = dose: 400.0 mg/kg/injection, schedule: Q04DX003 (ip), vehicle: Klucel (hydroxypropylcellulose) (HPC)
[15] = dose: 100.0 mg/kg/injection, schedule: Q04DX002 (ip), vehicle: Klucel (hydroxypropylcellulose) (HPC)
[16] = dose: 200.0 mg/kg/injection, schedule: Q04DX002 (ip), vehicle: Klucel (hydroxypropylcellulose) (HPC)
[17] = dose: 100.0 mg/kg/injection, schedule: Q01DX001 (ip), vehicle: saline
[18] = dose: 200.0 mg/kg/injection, schedule: Q01DX001 (ip), vehicle: saline
[19] = dose: 400.0 mg/kg/injection, schedule: Q01DX001 (ip), vehicle: saline

Measured: T/C

COc1cc(OCc2ccccc2)c(CC(=O)O)c([N+](=O)[O-])c1
inactive: [1] 104 % of control | dose: 100.0 mg/kg/injection, schedule: Q01DX009 (ip), vehicle: other 93 % of control | dose: 100.0 mg/kg/injection, schedule: Q04DX003 (ip), vehicle: other 100 % of control | [2] 100 % of control | dose: 200.0 mg/kg/injection, schedule: Q01DX009 (ip), vehicle: other 106 % of control | dose: 200.0 mg/kg/injection, schedule: Q04DX003 (ip), vehicle: other 94 % of control | dose: 400.0 mg/kg/injection, schedule: Q01DX001 (ip), vehicle: other 94 % of control | dose: 400.0 mg/kg/injection, schedule: Q01DX009 (ip), vehicle: other 103 % of control | dose: 400.0 mg/kg/injection, schedule: Q04DX003 (ip), vehicle: other 94 % of control

CCCCOB=O
inactive: [3] 96 % of control | [4] 106 % of control | [5] 98 % of control

C[C@]12CC[C@@H]3c4ccc(O)cc4CC[C@H]3[C@@H]1CC[C@@H]2OC(=O)CCC1CCCC1
inactive: dose: 60.0 mg/kg/injection, schedule: Q04DX003 (sc), vehicle: steriod suspending solution 104 % of control | dose: 100.0 mg/kg/injection, schedule: Q01DX001 (sc), vehicle: steriod suspending solution 107 % of control | dose: 120.0 mg/kg/injection, schedule: Q04DX003 (sc), vehicle: steriod suspending solution 104 % of control | dose: 200.0 mg/kg/injection, schedule: Q01DX001 (sc), vehicle: steriod suspending solution 113 % of control | dose: 240.0 mg/kg/injection, schedule: Q04DX003 (sc), vehicle: steriod suspending solution 100 % of control | dose: 400.0 mg/kg/injection, schedule: Q01DX001 (sc), vehicle: steriod suspending solution 107 % of control

Nc1ccc(C(=O)O)c(O)c1
inactive: dose: 37.88 mg/kg/injection, schedule: Q01DX Z (ip), vehicle: carboxymethylcellulose (CMC) 105 % of control | dose: 75.75 mg/kg/injection, schedule: Q01DX Z (ip), vehicle: carboxymethylcellulose (CMC) 96 % of control | [6] 97 % of control | [3] 104 % of control | [7] 96 % of control and 97 % of control | dose: 151.5 mg/kg/injection, schedule: Q01DX Z (ip), vehicle: carboxymethylcellulose (CMC) 96 % of control | [8] 97 % of control | [4] 97 % of control | [9] 95 % of control and 103 % of control | dose: 303.0 mg/kg/injection, schedule: Q01DX Z (ip), vehicle: carboxymethylcellulose (CMC) 95 % of control | [10] 89 % of control | [5] 95 % of control | [11] 95 % of control and 101 % of control

O=c1[nH]c2cscc2c(=O)n1O
inactive: [12] 103 % of control | [13] 97 % of control | [14] 107 % of control

Fc1c(F)c(-c2c(F)c(F)c(S)c(F)c2F)c(F)c(F)c1S
inactive: dose: 100.0 mg/kg/injection, schedule: Q04DX002 (ip), vehicle: saline with Tween-80 88 % of control | dose: 200.0 mg/kg/injection, schedule: Q04DX002 (ip), vehicle: saline with Tween-80 98 % of control

CCCCC(=C/C(C)(C)C)/C(=C/C(C)(C)C)CCCC
inactive: dose: 150.0 mg/kg/injection, schedule: Q01DX009 (ip), vehicle: saline 88 % of control | dose: 300.0 mg/kg/injection, schedule: Q01DX009 (ip), vehicle: saline 88 % of control

Cc1ccc(-n2c(O)c(N=Nc3ccc(Cl)cc3)c(=O)n(-c3ccc(Br)cc3)c2=S)cc1
inactive: dose: 50.0 mg/kg/injection, schedule: Q01DX001 (ip), vehicle: Klucel (hydroxypropylcellulose) (HPC) 103 % of control | dose: 100.0 mg/kg/injection, schedule: Q01DX001 (ip), vehicle: Klucel (hydroxypropylcellulose) (HPC) 105 % of control | dose: 200.0 mg/kg/injection, schedule: Q01DX001 (ip), vehicle: Klucel (hydroxypropylcellulose) (HPC) 108 % of control

CSc1nc(C)c(Br)c(Sc2nc(N)nc3nc[nH]c23)n1
inactive: dose: 100.0 mg/kg/injection, schedule: Q01DX Z (ip), vehicle: methylcellulose (MC) 87 % of control

NNC(=O)CNc1cccc(Br)c1
inactive: dose: 50.0 mg/kg/injection, schedule: Q04DX002 (ip), vehicle: Klucel (hydroxypropylcellulose) (HPC) 101 % of control and 92 % of control | [15] 114 % of control and 120 % of control | [16] 108 % of control

O=C1c2ccccc2C(=O)C1c1ccc2ccccc2n1
inactive: [7] 95 % of control | [9] 91 % of control | [11] 93 % of control

O=[N+]([O-])c1ccc(NC(c2ccccc2)c2ccc3cccnc3c2O)cc1 (centres undefined)
inactive: [17] 89 % of control | [18] 95 % of control | [19] 91 % of control

CCOC(=O)c1cnc[nH]c1=O
inactive: [12] 100 % of control | [13] 100 % of control | [14] 87 % of control

CC(=O)OCC1OC(N2C(=O)/C(=C/c3c(Cl)cccc3Cl)SC2=S)C(OC(C)=O)C(OC(C)=O)C1OC(C)=O (centres undefined)
inactive: dose: 25.0 mg/kg/injection, schedule: Q01DX005 (ip), vehicle: other 103 % of control | dose: 50.0 mg/kg/injection, schedule: Q01DX005 (ip), vehicle: other 101 % of control | dose: 100.0 mg/kg/injection, schedule: Q01DX005 (ip), vehicle: other 104 % of control | dose: 200.0 mg/kg/injection, schedule: Q01DX005 (ip), vehicle: other 93 % of control

O=C(O)COc1ccc(C(=O)O)cc1
inactive: [15] 111 % of control | [16] 97 % of control | dose: 400.0 mg/kg/injection, schedule: Q04DX002 (ip), vehicle: Klucel (hydroxypropylcellulose) (HPC) 101 % of control

COc1ccc(/C=N\NC(=O)CCCC(=O)N/N=C/c2ccc(OC)cc2)cc1
inactive: dose: 50.0 mg/kg/injection, schedule: Q01DX001 (ip), vehicle: other 93 % of control | [1] 88 % of control | [2] 90 % of control

COc1ccc2c(=O)c3c(O)cc(OC)cc3oc2c1
inactive: [17] 97 % of control | [18] 101 % of control | [19] 87 % of control and 90 % of control

COc1ncnc2c1ncn2C1OC(CF)C(O)C1O (centres undefined)
inactive: dose: 100.0 mg/kg/injection, schedule: Q01DX005 (ip), vehicle: saline 101 % of control | dose: 200.0 mg/kg/injection, schedule: Q01DX005 (ip), vehicle: saline 103 % of control

c1ccc2c(c1)Cc1cc(CN3CCOCC3)ccc1-2
inactive: dose: 50.0 mg/kg/injection, schedule: Q01DX001 (ip), vehicle: carboxymethylcellulose (CMC) 92 % of control | [6] 100 % of control | [8] 94 % of control | [10] 94 % of control

O=C(O)C1CCCCC1C(=O)Nc1ccccc1C(F)(F)F (centres undefined)
inactive: [3] 98 % of control | [7] 105 % of control | [4] 90 % of control | [9] 100 % of control | [5] 94 % of control | [11] 100 % of control

CCCCCCC1CC1
inactive: dose: 50.0 mg/kg/injection, schedule: Q01DX009 (ip), vehicle: saline 94 % of control | dose: 100.0 mg/kg/injection, schedule: Q01DX009 (ip), vehicle: saline 102 % of control | dose: 200.0 mg/kg/injection, schedule: Q01DX009 (ip), vehicle: saline 102 % of control

Cc1ccc(C)c(N=Nc2ccc(O)cc2)c1
inactive: [3] 94 % of control | [4] 93 % of control

From PubChem BioAssay AID248 (DTP/NCI, 2004)
